Test results from article PMC4858736, “Inhibition of cyclic diadenylate cyclase, DisA, by polyphenols” (Scientific Reports, 2016).
pIC50: −log10 of the molar value.

Target: T1, DisA (Bacillus subtilis, UniProt P37573)
T1 sequence (P37573 1-360): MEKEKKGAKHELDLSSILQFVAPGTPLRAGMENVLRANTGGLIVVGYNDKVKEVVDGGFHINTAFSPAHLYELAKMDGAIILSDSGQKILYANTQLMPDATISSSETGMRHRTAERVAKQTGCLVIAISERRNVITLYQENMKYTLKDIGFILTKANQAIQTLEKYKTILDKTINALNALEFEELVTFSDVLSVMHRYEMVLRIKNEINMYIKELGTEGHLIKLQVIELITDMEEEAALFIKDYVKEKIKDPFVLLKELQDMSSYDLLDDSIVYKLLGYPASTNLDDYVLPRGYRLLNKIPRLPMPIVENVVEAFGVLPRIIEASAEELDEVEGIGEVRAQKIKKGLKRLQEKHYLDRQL
Assay: […]-ATP TLC diadenylate cyclase assay with purified DisA; HPLC and coralyne assays
Type: biochemical

SMILES: O=C(O[C@@H]1Cc2c(O)cc(O)cc2O[C@@H]1c1cc(O)c(O)c2c(=O)c(O)cc([C@H]3Oc4cc(O)cc(O)c4C[C@H]3O)cc12)c1cc(O)c(O)c(O)c1 [TF2B, theaflavin-3′-gallate]
- pIC50: 4.63
